Publication PMC6220303 (EMBO Molecular Medicine, 2018)
Read-outs that look alike come from different tables or passages of the source.

Legend:
clinical = type: in vivo, human; conditions: for AUC(0-t): AUC 0–24h
Description: The lower limit of quantification (LLOQ) was 1 ng/ml in plasma and 2 ng/ml in urine and CSF, except for the 3‐month study where the method for CSF was more sensitive (LLOQ 0.1 ng/ml). Plasma PK parameters were calculated using actual recorded sampling times and non‐compartmental methods with Phoenix WinNonlin version 6.4 (Certara, Inc., Princeton, NJ, USA).
(§1) For further details, see the Appendix Table S10 in Appendix and the accompanying clinical protocols synopsis (Appendix Table S11).

CSF Aβ40 and sAPPβ = assay: Human CSF APP metabolites after single dose (serial CSF sampling); type: in vivo
Description: We investigated CSF Aβ and sAPPβ levels in humans by serial CSF sampling via an intrathecal catheter. […] Under these conditions, where Aβ production has completely stopped, the curves most likely reflect the rate of physiological clearance of Aβ40 and sAPPβ from human CSF.
(A) Changes in Aβ40 relative to baseline values. (B) Changes in sAPPβ relative to baseline values.
Human CSF was collected from an indwelling spinal catheter inserted into the lower spinal canal (in the single ascending dose (SAD) PD first in human (FIH) study) or by a lumbar puncture (in the multiple ascending dose (MAD) PD Phase I study and Phase IIa study), and by trained personnel at the site and as per their standard operating procedure (SOP). CSF Aβ38, Aβ40, Aβ42, sAPPα, and sAPPβ were quantified in human CSF with 0.2% (v/v) Tween®‐20 using validated sandwich‐based multiplexed electrochemiluminescence methods (MesoScale Discovery, […], MD, USA).

[1] = system: healthy participants ≥ 60 years; assay: Adverse events after once-daily dosing over two weeks (Appendix Table S7); type: in vivo, human
Description: as §1
Appendix Table S3. Overview of completed clinical studies with CNP520
Study description Population No. of Participants Dose/Frequency […]
First-in-human, randomized, 18-55 yrs 38 / 14 Single dose (10, 30, 90, […]
controlled, single and multiple CNP520 vs placebo) ascending oral dose study to Single dose (10, 90, 300,

Lipoxygenase 5-LO = Lipoxygenase 5-LO (Homo sapiens, UniProt P09917); assay: Receptor panel; type: biochemical; conditions: read-out: Inhibition at 10 µM
Description: Cellular Aβ release assays were done in CHO cells stably transfected with human wild‐type and human APP were done as described (Neumann et al, 2015). Determinations of logD, pKa, and binding to brain homogenates were done internally at Novartis, Basel. Plasma protein binding was determined by equilibrium dialysis using diluted plasma from the corresponding species. MDR‐1‐MDCK cells were obtained from Prof. A. Berns, Netherlands Cancer Institute, Amsterdam NL, and bi‐directional transport measurements were done as described (Rueeger et al, 2011). Receptor binding assays were done against an internal receptor panel and externally at Ricerca Biosciences, Peitou, Taiwan. In vitro binding and cellular patch clamp assays for hERG were done at Preclinical Safety, Novartis, Basel.

[2] = single dose 1250 mg, adults (2), individual data points
[3] = after a 750 mg CNP520 dose, n=6

Sequence of Lipoxygenase 5-LO (P09917 whole entry): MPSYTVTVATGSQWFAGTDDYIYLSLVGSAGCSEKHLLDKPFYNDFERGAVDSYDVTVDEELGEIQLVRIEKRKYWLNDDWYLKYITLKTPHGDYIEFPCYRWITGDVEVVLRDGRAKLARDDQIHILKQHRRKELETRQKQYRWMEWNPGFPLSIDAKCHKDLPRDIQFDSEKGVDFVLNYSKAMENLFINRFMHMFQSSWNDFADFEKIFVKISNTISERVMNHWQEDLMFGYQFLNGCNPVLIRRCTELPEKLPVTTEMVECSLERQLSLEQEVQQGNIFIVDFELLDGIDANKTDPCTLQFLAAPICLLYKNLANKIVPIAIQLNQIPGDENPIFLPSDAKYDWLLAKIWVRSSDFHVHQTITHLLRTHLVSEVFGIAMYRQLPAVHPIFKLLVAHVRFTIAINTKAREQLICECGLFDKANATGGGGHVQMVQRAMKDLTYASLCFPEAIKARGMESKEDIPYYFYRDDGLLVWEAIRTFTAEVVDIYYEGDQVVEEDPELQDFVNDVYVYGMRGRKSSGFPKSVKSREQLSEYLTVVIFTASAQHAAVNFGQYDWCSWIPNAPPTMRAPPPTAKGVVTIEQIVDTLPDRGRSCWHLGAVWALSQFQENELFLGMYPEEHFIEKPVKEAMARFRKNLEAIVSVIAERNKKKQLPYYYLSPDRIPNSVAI

Work on `C[C@@]1(c2nc(NC(=O)c3ncc(C(F)(F)F)cc3Cl)ccc2F)CO[C@@](C)(C(F)(F)F)C(N)=N1` [CNP520] yielded a Tmax (clinical; human, plasma, oral, 75 mg, food effect, 75 mg Fed (10), adults, median (min–max), read-out: Tmax) of 4.04 h, a Tmax (clinical; human, plasma, oral, 85 mg, 3 months, Day 91, median (min–max)) of 2.5 h and a Cmax (clinical; human, plasma, oral, 85 mg, 3 months, Day 91, ≥ 60 years, mean (CV%)) of 602 ng/mL. It also gave an AUC(0-t) (clinical; human, plasma, oral, 85 mg, 85 mg, 3 months, Day 91, mean (CV%)) of 11200 ng·h/mL, a Tmax (clinical; human, plasma, oral, 90 mg, 14 days, Day 14, median (min–max)) of 3 h and a Cmax (clinical; human, plasma, oral, 90 mg, 14 days, Day 14, ≥ 60 years, mean (CV%)) of 581 ng/mL. For the same molecule, the AUC(0-t) (clinical; human, plasma, oral, 90 mg, 90 mg, 14 days, Day 14, mean (CV%)) was 9380 ng·h/mL, the AUC(0-inf) (clinical; human, plasma, oral, 90 mg, single dose 90 mg, adults (6), mean (%CV)) was 7190 ng·h/mL and the Cmax (clinical; human, plasma, oral, 90 mg, single dose 90 mg, adults (6), mean (%CV), read-out: Cmax) was 138 ng/mL. It also gave a half-life (clinical; human, plasma, oral, 90 mg, single dose 90 mg, adults (6), mean (%CV), read-out: T1/2 (converted)) of 66.2 h, a Tmax (clinical; human, plasma, oral, 90 mg, single dose 90 mg, adults (6), median (min–max), read-out: Tmax) of 3.5 h and a Cmax (clinical; human, plasma, oral, 90 mg, single dose 90 mg, adults ≥ 60 years (6), mean (%CV), read-out: Cmax) of 172 ng/mL. For the same molecule, the Tmax (clinical; human, plasma, oral, 90 mg, single dose 90 mg, adults ≥ 60 years (6), median (min–max), read-out: Tmax) was 2.02 h, the Tmax (clinical; human, plasma, oral, 300 mg, 14 days, Day 14, median (min–max)) was 2.51 h and the Cmax (clinical; human, plasma, oral, 300 mg, 14 days, Day 14, ≥ 60 years, mean (CV% 25.1)) was 1710 ng/mL. The AUC(0-t) (clinical; human, plasma, oral, 300 mg, 300 mg, 14 days, Day 14, mean (CV%)) was 28300 ng·h/mL, the AUC(0-inf) (clinical; human, plasma, oral, 300 mg, single dose 300 mg, adults (6), mean (%CV)) was 23500 ng·h/mL and the Cmax (clinical; human, plasma, oral, 300 mg, single dose 300 mg, adults (6), mean (%CV), read-out: Cmax) was 498 ng/mL. For the same molecule, the half-life (clinical; human, plasma, oral, 300 mg, single dose 300 mg, adults (6), mean (%CV), read-out: T1/2 (converted)) was 57.9 h, the Tmax (clinical; human, plasma, oral, 300 mg, single dose 300 mg, adults (6), median (min–max), read-out: Tmax) was 6 h and the Cmax (clinical; human, plasma, oral, 300 mg, single dose 300 mg, adults ≥ 60 years (18), mean (%CV), read-out: Cmax) was 440 ng/mL. It also gave a Tmax (clinical; human, plasma, oral, 300 mg, single dose 300 mg, adults ≥ 60 years (18), median (min–max), read-out: Tmax) of 5.04 h, an AUC(0-inf) (clinical; human, plasma, oral, 750 mg, single dose 750 mg, adults (6), mean (%CV)) of 90100 ng·h/mL and a Cmax (clinical; human, plasma, oral, 750 mg, single dose 750 mg, adults (6), mean (%CV), read-out: Cmax) of 1150 ng/mL. It also gave a half-life (clinical; human, plasma, oral, 750 mg, single dose 750 mg, adults (6), mean (%CV), read-out: T1/2 (converted)) of 83.8 h, a Tmax (clinical; human, plasma, oral, 750 mg, single dose 750 mg, adults (6), median (min–max), read-out: Tmax) of 2.5 h and a Cmax (clinical; human, plasma, oral, 750 mg, single dose 750 mg, adults ≥ 60 years (20), mean (%CV), read-out: Cmax) of 1120 ng/mL. The Tmax (clinical; human, plasma, oral, 750 mg, single dose 750 mg, adults ≥ 60 years (20), median (min–max), read-out: Tmax) was 3 h, the AUC(0-inf) (clinical; human, plasma, oral, 1250 mg, single dose 1250 mg, adults (2), individual data points) was 168000 ng·h/mL and the Cmax (clinical; human, plasma, oral, 1250 mg, single dose 1250 mg, adults (2), individual data points, read-out: Cmax) was 2850 ng/mL. It also gave a half-life (clinical; human, plasma, oral, 1250 mg, single dose 1250 mg, adults (2), individual data points, read-out: T1/2 (converted)) of 76.4 h, a Tmax (clinical; human, plasma, oral, 1250 mg, single dose 1250 mg, adults (2), individual data points, read-out: Tmax) of 4 h and a Tmax (clinical; human, plasma, oral, after dose, human pharmacokinetic studies, read-out: T max) of 1 to 8 h. For the same molecule, the half-life (clinical; human, plasma, oral, healthy adult participants, single dose, read-out: mean terminal T 1/2) was 61.3 to 83.8 h, the AUCinf (clinical; [2]) was 184000 ng·h/mL and the Cmax (clinical; [2]) was 2890 ng/mL. The T1/2 (clinical; [2]) was 86.1 h, the Tmax (clinical; [2]) was 8.00 h and the “unbound concentration of CNP520 in plasma” value (clinical; typically, at pharmacologically active doses in animals and humans) was “below 0.1 μM”. The “maximum reduction in CSF Aβ40 from baseline” value (CSF Aβ40 and sAPPβ; 750-mg single dose, mean ± SD) was 79.1 ± 8.9%, the “first-order rate constant k, Aβ40 in human CSF” value (CSF Aβ40 and sAPPβ; [3]) was 0.068 ± 0.002 h⁻¹ and the “first-order rate constant k, sAPPβ in human CSF” value (CSF Aβ40 and sAPPβ; [3]) was 0.043 ± 0.004 h⁻¹. The “AE incidence: Respiratory, thoracic and mediastinal disorders” value ([1]; 10 mg once daily, N = 9) was 1 (11.1) n (%), the “Participants with any AE(s)” value ([1]; 10 mg once daily, N = 9) was 6 (66.7) n (%) and the “AE incidence: Renal and urinary disorders” value ([1]; 30 mg once daily, N = 9) was 0 (0.0) n (%). For the same molecule, the “AE incidence: Ear and labyrinth disorders” value ([1]; 300 mg once daily, N = 8) was 0 (0.0) n (%) and the inhibition at 10 µM (Lipoxygenase 5-LO) was 66%.
